Test results from the CheMixHub drug solubility set.

Experiment: xn = mol fraction of the nth substance listed, in the solute-free solvent

Cc1c(Br)c(=O)n(C2CCCC2)c2nc(Cl)ncc12 + CC1=CC(=O)CC(C)(C)C1 + CC(C)O
solubility (g/100 g solution)
Details	278.15 K	283.15 K	288.15 K	293.15 K	298.15 K	303.15 K	308.15 K	313.15 K	318.15 K	323.15 K
x2 = 0.1	0.104	0.147	0.203	0.285	0.388	0.522	0.702	0.929	1.27	1.59
x2 = 0.2	0.167	0.234	0.327	0.45	0.61	0.819	1.09	1.43	1.87	2.42
x2 = 0.3	0.232	0.325	0.45	0.614	0.828	1.11	1.47	1.92	2.49	3.21
x2 = 0.4	0.288	0.401	0.554	0.752	1.02	1.35	1.79	2.33	3.02	3.87
x2 = 0.5	0.332	0.458	0.633	0.862	1.16	1.54	2.03	2.65	3.43	4.39
x2 = 0.6	0.364	0.506	0.697	0.947	1.27	1.69	2.23	2.9	3.75	4.8
x2 = 0.7	0.391	0.543	0.746	1.01	1.37	1.82	2.39	3.12	4.02	5.14
x2 = 0.8	0.416	0.579	0.796	1.08	1.45	1.93	2.54	3.32	4.28	5.48
x2 = 0.9	0.441	0.613	0.844	1.15	1.54	2.05	2.7	3.52	4.55	5.82

C#CC1(O)CCC2C3CCC4=CC(=O)CCC4C3C(=C)CC21CC (centres undefined) + CO + O
solubility (g/100 g solution)
Details	x2 = 0.05881	x2 = 0.1233	x2 = 0.1942	x2 = 0.2727	x2 = 0.3599	x2 = 0.4576	x2 = 0.5675	x2 = 0.6923	x2 = 0.835
273.15 K	0.987	1.09	1.19	1.31	1.32	1.44	1.45	1.62	3.44
278.15 K	1.1	1.19	1.31	1.46	1.47	1.6	1.7	1.9	3.82
283.15 K	1.2	1.28	1.43	1.59	1.61	1.74	1.95	2.15	4.22
288.15 K	1.31	1.39	1.56	1.75	1.77	1.88	2.21	2.46	4.66
293.15 K	1.42	1.49	1.68	1.91	1.92	2.03	2.49	2.8	5.13
298.15 K	1.52	1.59	1.8	2.05	2.08	2.17	2.74	3.18	5.62
303.15 K	1.62	1.68	1.91	2.21	2.23	2.3	3.01	3.61	6.16
308.15 K	1.71	1.76	2.01	2.35	2.38	2.43	3.28	4.07	6.71
313.15 K	1.79	1.84	2.12	2.48	2.51	2.54	3.54	4.52	7.27
318.15 K	1.86	1.92	2.21	2.62	2.66	2.64	3.78	5.05	7.92
323.15 K	1.93	1.98	2.29	2.73	2.78	2.72	4	5.59	8.54

NC(=O)NC1NC(=O)NC1=O (centres undefined) + OCCO + CO
solubility (g/100 g solution)
Details	288.15 K	293.15 K	298.15 K	303.15 K	308.15 K	313.15 K	318.15 K	323.15 K	328.15 K	333.15 K
x2 = 0.154	0.124	0.146	0.174	0.21	0.242	0.287	0.338	0.396	0.461	0.524
x2 = 0.326	0.188	0.22	0.268	0.336	0.395	0.438	0.508	0.566	0.651	0.732
x2 = 0.521	0.305	0.338	0.387	0.447	0.531	0.613	0.66	0.756	0.83	0.938
x2 = 0.744	0.455	0.481	0.55	0.634	0.702	0.78	0.851	1	1.09	1.25
